Results on three compounds are retold here after ChEMBL document CHEMBL1149623, “Identification of antibacterial and antiviral activities of novel fused 1,2,4-triazine esters” (2007).

A short description of assay [1]: Cytotoxicity against monkey GMK cells at 2.5 ug/mL after 96 hrs by MTT assay. It is filed as functional, Chlorocebus aethiops. (Tetrazolium dyes change colour on reduction, which living cells bring about.)
Another assay deals with Escherichia coli. The assay can be described thus: Antibacterial activity against Escherichia coli ATCC 25922 at 100 mg/mL after 24 hrs by disc diffusion method. Type of assay: functional. Background: A growth-free zone around the sample is the usual read-out of agar diffusion tests.
For assay [2], the system named is HEK293. The assay can be described thus: Cytotoxicity against human HEK293 cells at 5 ug/mL after 48 hrs by MTT assay. Type of assay: functional.
Assay [3] can be described thus: Cytotoxicity against monkey GMK cells at 5 ug/mL after 48 hrs by MTT assay. It is filed as functional, Chlorocebus aethiops.
Another assay concerns Streptococcus pyogenes. The assay is described as follows: Antibacterial activity against Streptococcus pyogenes at 100 mg/mL after 24 hrs by disc diffusion method. It is filed as functional.
Assay [4] deals with Human adenovirus 5. The assay can be described thus: Antiviral activity against Human adenovirus 5 in HEK293 cells assessed as virus titre at 100 ug/mL after 1 hr. Type of assay: functional.
The nature of assay [5]: Cytotoxicity against monkey GMK cells at 10 ug/mL after 72 hrs by MTT assay. Type of assay: functional, Chlorocebus aethiops.
Assay [6] relates to HEK293. The assay can be described thus: Cytotoxicity against human HEK293 cells at 50 ug/mL after 120 hrs by MTT assay. Type of assay: functional.
Assay [7] deals with HEK293. The assay is described as follows: Cytotoxicity against human HEK293 cells at 2.5 ug/mL after 96 hrs by MTT assay. It is filed as functional.
The nature of assay [8]: Cytotoxicity against monkey GMK cells at 10 ug/mL after 24 hrs by MTT assay. It is filed as functional, Chlorocebus aethiops.
In another assay the test system is Staphylococcus aureus. The assay is described as follows: Antibacterial activity against Staphylococcus aureus ATCC 25923 at 100 mg/mL after 24 hrs by disc diffusion method. It is filed as functional.
Assay [9] relates to Human adenovirus 5. The assay can be described thus: Antiviral activity against Human adenovirus 5 in HEK293 cells assessed as virus titre at 50 ug/mL after 1 hr. It is filed as functional.
In assay [10] the test system is HEK293. The assay is described as follows: Cytotoxicity against human HEK293 cells at 2.5 ug/mL after 48 hrs by MTT assay. It is filed as functional.
The nature of assay [11]: Cytotoxicity against monkey GMK cells at 5 ug/mL after 120 hrs by MTT assay. Type of assay: functional, Chlorocebus aethiops.
Assay [12] relates to Echovirus E9. The assay is described as follows: Antiviral activity against Human echovirus 9 in GMK cells assessed as virus titre at 100 ug/mL after 1 hr. It is filed as functional.
Assay [13] has as its system Human adenovirus 5. The assay is described as follows: Antiviral activity against Human adenovirus 5 in HEK293 cells assessed as inhibition of virus titre at 200 ug/mL after 24 hrs by CPE method. The conditions noted are these: Human mastadenovirus C, HEK293, 24 h. It is filed as functional.
The test system of assay [14] is HEK293. The assay is described as follows: Cytotoxicity against human HEK293 cells at 50 ug/mL after 24 hrs by MTT assay. It is filed as functional.
The test system of assay [15] is HEK293. The assay is described as follows: Cytotoxicity against human HEK293 cells at 5 ug/mL after 120 hrs by MTT assay. Type of assay: functional.
Assay [16] can be described thus: Cytotoxicity against monkey GMK cells at 200 ug/mL after 48 hrs by MTT assay. It is filed as functional, Chlorocebus aethiops.
Assay [17] in a line: Cytotoxicity against monkey GMK cells at 200 ug/mL after 120 hrs by MTT assay. It is filed as functional, Chlorocebus aethiops.
The test system of assay [18] is Echovirus E9. The assay is described as follows: Antiviral activity against Human echovirus 9 in GMK cells assessed as inhibition of virus titre at 100 ug/mL after 24 hrs by CPE method. It is filed as functional. The note with it: Enterovirus B.
The subject of assay [19] is Staphylococcus epidermidis. The assay is described as follows: Antibacterial activity against Staphylococcus epidermidis at 100 mg/mL after 24 hrs by disc diffusion method. Type of assay: functional.
For assay [20], the system named is HEK293. The assay can be described thus: Cytotoxicity against human HEK293 cells at 10 ug/mL after 24 hrs by MTT assay. It is filed as functional.
Assay [21] deals with HEK293. The assay is described as follows: Cytotoxicity against human HEK293 cells at 50 ug/mL after 72 hrs by MTT assay. Type of assay: functional.
The test system of assay [22] is HEK293. The assay can be described thus: Cytotoxicity against human HEK293 cells at 25 ug/mL after 24 hrs by MTT assay. It is filed as functional.
The subject of assay [23] is Human adenovirus 5. The assay can be described thus: Antiviral activity against Human adenovirus 5 in HEK293 cells assessed as inhibition of virus titre at 100 ug/mL after 24 hrs by CPE method. It is filed as functional. The conditions noted are these: Human mastadenovirus C, HEK293, 24 h.
The subject of assay [24] is Human adenovirus 5. The assay is described as follows: Antiviral activity against Human adenovirus 5 in HEK293 cells assessed as inhibition of virus titre at 50 ug/mL after 24 hrs by CPE method. It is filed as functional. The conditions noted are these: Human mastadenovirus C, HEK293, 24 h.
Assay [25] relates to Echovirus E9. The assay is described as follows: Antiviral activity against Human echovirus 9 in GMK cells assessed as inhibition of virus titre at 200 ug/mL after 24 hrs by CPE method. It is filed as functional. The conditions noted are these: Enterovirus B.
The test system of assay [26] is Echovirus E9. The assay is described as follows: Antiviral activity against Human echovirus 9 in GMK cells assessed as inhibition of virus titre at 50 ug/mL after 24 hrs by CPE method. The conditions noted are these: Enterovirus B. It is filed as functional.

One may read the inhibition as the percentage by which the read-out fell short of the control. For `COC(=O)CC1NN=C2N(CCN2c2cccc(Cl)c2)C1=O` (configuration not stated), the Activity in assay [1] turned out to be 100%; in the assay with HEK293 [2] it was 100%; in [3], 100%; in assay [5] it was 100%; in the assay on HEK293 [6], 90%; in the assay with HEK293 [7], 100%. For the same compound, the Activity in [8] amounted to 100%; in the assay with HEK293 [10], 100%; in assay [11], 100%; in the assay with HEK293 [14] it was 95%; in the assay with HEK293 [15], 100%; in [16], 10%. In addition, the Activity in [17] was 0%; in the assay on HEK293 [20], 100%; in the assay with HEK293 [21], 95%; with HEK293 [22] it was 100%. In addition, the Inhibition in the assay with Escherichia coli is given as greater than 20 mm; in the assay with Streptococcus pyogenes, 10 mm; in the assay with Staphylococcus aureus it was 16 mm; in assay [19] it was 16 mm. The TCID50 in the assay with Human adenovirus 5 [4] came to 3.5 mL⁻¹; in the assay with Human adenovirus 5 [9] it was 3.5 mL⁻¹; in the assay with Echovirus E9 [12], 3 mL⁻¹. In the assay with Human adenovirus 5 [13], the inhibition at 200 µg/mL worked out at 8%. The inhibition at 100 µg/mL in the assay with Echovirus E9 [18] was determined as 9.9%.

Consider `CCOC(=O)CC1NN=C2N(CCN2c2ccc(C)cc2)C1=O` (configuration not stated), for which the Activity worked out at 100% in assay [1]; 100% in the assay on HEK293 [2]; 100% in [3]; 100% in assay [5]; 75% in the assay on HEK293 [6]; 100% in the assay on HEK293 [7]. Further, the Activity is listed as 100% in assay [8]; 100% with HEK293 [10]; 100% in [11]; 90% in the assay with HEK293 [14]; 100% with HEK293 [15]; 0% in assay [16]. In addition, the Activity in assay [17] is recorded as 0%; in the assay with HEK293 [20] it was 100%; with HEK293 [21], 80%; in the assay on HEK293 [22], 100%. Moreover, the values for the TCID50 in the assay with Human adenovirus 5 [4], in the assay with Human adenovirus 5 [9] and in the assay on Echovirus E9 [12] were 2.5 mL⁻¹, 2.5 mL⁻¹ and 3.67 mL⁻¹, respectively. Moreover, the inhibition at 200 µg/mL with Human adenovirus 5 [13] stood at 23%. The inhibition at 100 µg/mL with Human adenovirus 5 [23] worked out at 23%. The inhibition at 50 µg/mL in the assay with Human adenovirus 5 [24] turned out to be 23%.

For `CCOC(=O)CC1NN=C2N(CCN2c2ccc(Cl)cc2)C1=O` (configuration not stated), the Activity (in assay [1]; in the assay on HEK293 [2]; in assay [3]; in assay [5]; in the assay with HEK293 [6]; in the assay with HEK293 [7]) was 100% throughout. For the same compound, the Activity (in assay [8]; in the assay with HEK293 [10]; in assay [11]; with HEK293 [14]; in the assay with HEK293 [15]; in assay [16]) was 100% in each case. The Activity in assay [17] is listed as 95%; in the assay on HEK293 [20], 100%; in the assay on HEK293 [21], 100%; in the assay with HEK293 [22], 100%. In addition, the Inhibition with Escherichia coli is listed as 10 mm; with Streptococcus pyogenes, greater than 20 mm; in the assay on Staphylococcus aureus, less than 9 mm; in [19] it was 16 mm. Moreover, the TCID50 was found to be 3.5 mL⁻¹ in the assay on Human adenovirus 5 [4], 3.5 mL⁻¹ in the assay on Human adenovirus 5 [9] and 3.67 mL⁻¹ in the assay on Echovirus E9 [12]. The inhibition at 200 µg/mL in the assay with Echovirus E9 [25] stood at 25%. Moreover, the inhibition at 50 µg/mL in the assay on Echovirus E9 [26] was 9.4%.
